This data set in a line: RP, Agilent ZORBAX Eclipse Plus C18, 50 × 4.6 mm, 1.8 µm, 0.5 mL/min, estimated dead time 1.1 min; A: water + 0.1% formic acid; B: acetonitrile + 0.1% formic acid; gradient (min/%B) 0/10 3/10 25/100 28/100. To be noted: stereoisomer not certain.

Turning to `COc1cc(C2c3cc4c(cc3C(OC3OC5COC(C)OC5C(O)C3O)C3COC(=O)C23)OCO4)cc(OC)c1OP(=O)(O)O` (stereo unspecified), the LC retention time is 16.1 min. Then `CC1=C(C(=O)Nc2ccccc2)SCCO1`, with 13.1 min; and `CN1C2CCC1C(C(=O)O)C(OC(=O)c1ccccc1)C2` (stereo unspecified), with 6.61 min; and `CC(C)c1cc(Oc2ccccc2)cc(C(C)C)c1NC(=S)NC(C)(C)C`, with 22.3 min. Then `CCOP(=S)(OCC)Oc1ccc(S(C)=O)cc1` (stereo unspecified), with 13.5 min; and `Cc1nnc(-c2ccccc2)c(=O)n1N`, with 7.57 min; and `CNC(=O)ON=CC(C)(C)S(C)=O` (stereo unspecified), with 2.7 min.

With `CC(=O)CC(c1ccccc1)c1c(O)c2ccccc2oc1=O` (stereo unspecified), the LC retention time is 14.9 min. On to `CCC(=O)C(CC(C)N(C)C)(c1ccccc1)c1ccccc1` (stereo unspecified), for which the LC retention time is 11.4 min. As to `CCOP(=S)(Oc1ccc([N+](=O)[O-])cc1)c1ccccc1` (stereo unspecified), the LC retention time was 20 min.

`CC(COc1ccc(Oc2ccccc2)cc1)Oc1ccccn1` (stereo unspecified): the LC retention time is 21.2 min. Then `CCC1OC(=O)CC(O)C(C)C(OC2OC(C)C(OC3CC(C)(O)C(O)C(C)O3)C(N(C)C)C2O)C(CC=O)CC(C)C(=O)C=CC(C)=CC1COC1OC(C)C(O)C(OC)C1OC` (stereo unspecified), with 10.1 min; and `c1ccc2[nH]c(-c3cscn3)nc2c1`, with 4.54 min; and `C=C(C)C1CCC(C)=CC1c1c(O)cc(CCCCC)cc1O` (stereo unspecified), with 21.2 min. Then `O=c1[nH]c2c(c(=O)n1C1CCCCC1)CCC2`, with 11.3 min; and `COc1cc(Cc2cnc(N)nc2N)cc(OC)c1OC`, with 5.6 min. Consider `CNC(=O)Oc1ccccc1C(C)C`, for which the LC retention time was 13.6 min. Turning to `Cn1cnc2c1c(=O)[nH]c(=O)n2C`, the LC retention time was 1.96 min. In the case of `CCOP(=S)(OCC)Oc1ccc(=O)n(-c2ccccc2)n1`, the LC retention time was 16.1 min. Then `COCc1cnc(C2=NC(C)(C(C)C)C(=O)N2)c(C(=O)O)c1` (stereo unspecified), with 8.04 min; and `CCOc1cc(OP(=S)(OC)OC)nc(CC)n1`, with 18.8 min. `CCOP(=O)(SC(C)CC)N1CCSC1=O` (stereo unspecified): the LC retention time is 12.7 min. Then `CON=C(C(=O)NC1C(=O)N2C(C(=O)O)=C(COC(C)=O)CSC12)c1csc(N)n1` (stereo unspecified), with 6.29 min; and `CCNc1nc(NC(C)(C)C)nc(OC)n1`, with 9.32 min; and `CCNC(C)Cc1ccccc1` (stereo unspecified), with 5.85 min. Then `COC(=O)c1ccccc1S(=O)(=O)NC(=O)Nc1nc(C)cc(C)n1`, with 12.2 min; and `COCCOc1ccccc1S(=O)(=O)NC(=O)Nc1nc(OC)nc(OC)n1`, with 11.9 min; and `Nc1ccc(S(=O)(=O)Nc2nccs2)cc1`, with 5.2 min. Turning to `CCC(C)C1OC2(C=CC1C)CC1CC(CC=C(C)C(OC3CC(OC)C(OC4CC(OC)C(NC(C)=O)C(C)O4)C(C)O3)C(C)C=CC=C3COC4C(O)C(C)=CC(C(=O)O1)C34O)O2` (stereo unspecified), the LC retention time was 21.2 min. As for `CN(C)C1C(=O)C(C(N)=O)=C(O)C2(O)C(=O)C3=C(O)c4c(O)cccc4C(C)(O)C3C(O)C12` (stereo unspecified), the LC retention time is 6.11 min.

Take `CSC(C)=NOC(=O)N(C)SN(C)C(=O)ON=C(C)SC`: the LC retention time is 11.8 min. Then `O=NN1CCOCC1`, with 2.21 min; and `CCOc1ccc2c3c1OC1C(O)C=CC4C(C2)N(C)CCC341` (stereo unspecified), with 5.83 min. Then `O=C(O)c1ccccc1C(=O)Nc1cccc2ccccc12`, with 11.7 min; and `Cc1ccc(C)c(OCCCC(C)(C)C(=O)O)c1`, with 18.1 min; and `CNC(=O)ON=CC(C)(C)SC`, with 10.2 min. Then `CC(C)(C)NCC(O)c1ccc(O)c(CO)c1` (stereo unspecified), with 1.63 min; and `CCC1OC(=O)C(C)C(OC2CC(C)(OC)C(O)C(C)O2)C(C)C(OC2OC(C)CC(N(C)C)C2O)C(C)(OC)CC(C)C(=O)C(C)C(O)C1(C)O` (stereo unspecified), with 11.1 min. With `O=c1oc2ccccc2c(O)c1C1CC(c2ccc(-c3ccccc3)cc2)Cc2ccccc21` (stereo unspecified), the LC retention time was 21.7 min. Then `CNC(=O)Oc1cccc(C)c1`, with 11 min; and `Cc1cc(C)nc(Nc2ccccc2)n1`, with 11.6 min; and `Nc1ccc(S(=O)(=O)Nc2ncccn2)cc1`, with 4.16 min.

`CNC(=O)Oc1cccc2c1OC(C)(C)C2`: the LC retention time is 12.1 min. Consider `CC(N)Cc1ccccc1` (stereo unspecified), for which the LC retention time was 3.82 min.

On to `COP(N)(=O)SC` (stereo unspecified), for which the LC retention time was 1.61 min.

For the compound `CNC(=O)ON=C(C)C(C)SC` (stereo unspecified), the LC retention time is 9.65 min. Then `CCCCCc1cc(O)c2c(c1)OC(C)(C)C1CCC(C)=CC21` (stereo unspecified), with 23.6 min. Then `CS(=O)(=O)c1ccc(C(=O)C2C(=O)CCCC2=O)c([N+](=O)[O-])c1`, with 12 min; and `Nc1ccc(S(N)(=O)=O)cc1`, with 1.82 min. Regarding `CCOP(=O)(NC(C)C)Oc1ccc(SC)c(C)c1` (stereo unspecified), the LC retention time is 15.4 min. Then `CCN(CC)C(=O)C(C)Oc1cccc2ccccc12` (stereo unspecified), with 16.3 min. Then `CNC(=O)CSP(=S)(OC)OC`, with 9 min; and `Nc1ccc(S(=O)(=O)Nc2ccccn2)cc1`, with 5.27 min.

With `COP(=S)(OC)Oc1ccc(SC)c(C)c1`, the LC retention time was 18.5 min. Then `CCC1OC(=O)C(C)C(OC2CC(C)(OC)C(O)C(C)O2)C(C)C(OC2OC(C)CC(N(C)C)C2O)C(C)(O)CC(C)C(=O)C(C)C(O)C1(C)O` (stereo unspecified), with 9.73 min; and `CSc1nc(NC(C)C)nc(NC(C)C)n1`, with 12.1 min.

As to `COP(=S)(OC)Oc1ccc([N+](=O)[O-])c(C)c1`, the LC retention time was 17.2 min. `CCOC(=O)C(CCc1ccccc1)NC(C)C(=O)N1CCCC1C(=O)O` (stereo unspecified): the LC retention time was 9.21 min. Regarding `CCOP(=S)(OCC)OP(=S)(OCC)OCC`, the LC retention time is 19.3 min.

With `CCCCC1C(=O)N(c2ccccc2)N(c2ccccc2)C1=O`, the LC retention time is 17.2 min. Consider `CN1CCCC1c1cccnc1` (stereo unspecified), for which the LC retention time was 1.36 min.

For `Cc1ccc(NS(=O)(=O)N(C)C)cc1`, the LC retention time was 12.9 min. Then `Cc1cc(NS(=O)(=O)c2ccc(N)cc2)no1`, with 9.06 min; and `CNC(=O)ON=C(C)SC`, with 5.39 min. For the compound `c1coc(-c2nc3ccccc3[nH]2)c1`, the LC retention time is 5.19 min. Then `CC(C)(C)C(O)C(Oc1ccc(-c2ccccc2)cc1)n1cncn1` (stereo unspecified), with 16.6 min; and `NC(=O)Cc1cccc2ccccc12`, with 10 min; and `CN=C(NC#N)NCCSCc1nc[nH]c1C`, with 1.83 min. As for `CNCC(O)c1cccc(O)c1` (stereo unspecified), the LC retention time was 1.36 min. Then `Cc1cc(C)c(C2=C(OC(=O)CC(C)(C)C)C3(CCCC3)OC2=O)c(C)c1`, with 23.1 min.

In the case of `CCOP(=O)(OCC)OCC`, the LC retention time is 9.03 min.

These data come from the RepoRT retention time repository (doi:10.1016/j.chroma.2014.05.003).
